Measured values reported in the supplement of paper PMC8882468.

Tests used:
Assay in all cases: CTG-3D luminescence at 96 h relative to day-0 seeding control (ratio to day 0); higher = more growth / less cytotoxicity; PDxO 3D drug screen, 96 h, CTG-3D normalised to day-0 seeding control.
HCI-008 = system: HCI-008 (organoid from a HER2-enriched breast cancer xenograft)
HCI-010 = system: HCI-010 (organoid from a breast cancer xenograft)
HCI-011.E2 = system: HCI-011.E2 (organoid from an ER-positive breast cancer xenograft)
HCI-023 = system: HCI-023 (organoid from a triple-negative breast cancer xenograft)
HCI-025 = system: HCI-025 (organoid from a breast cancer xenograft)
HCI-027 = system: HCI-027 (organoid from a triple-negative breast cancer xenograft)

CC(C)(C(=O)NCC(F)(F)C(F)(F)F)C(=O)N[C@@H]1C(=O)Nc2ccccc2-c2ccccc21
CTG-3D luminescence at 96 h
Conditions	12.5 pM	0.00025 µM	0.005 µM	0.1 µM	1 µM	10 µM	100 µM	625 fM
HCI-008, days in culture: 228	1.74	1.41	1	1.3	1.17	1.68	1.05	1.81
HCI-008, days in culture: 244	1.18	1.67	1.24	1.59	1.45	1.45	0.931	2.05
HCI-010, days in culture: 52	2.08	1.91	2.38	2.13	1.86	1.9	1.24	2.2
HCI-010, days in culture: 65	1.59	1.67	1.85	1.82	1.7	1.58	0.419	1.79
HCI-010, days in culture: 103	2.86	2.96	2.93	2.95	2.98	2.72	2.02	3.05
HCI-011.E2, days in culture: 74	2.34	1.83	1.89	1.8	1.57	2.5	1.76	1.73
HCI-023, days in culture: 111	1.36	1.08	0.961	0.975	0.945	1.09	0.672	1.53
HCI-023, days in culture: 128	1.61	1.47	1.06	1.27	1.17	1.65	0.804	1.64
HCI-025, days in culture: 172	2.02	2.24	3.81	2.44	2.2	2.06	0.839	2.75
HCI-025, days in culture: 209	1.5	1.73	1.93	1.61	1.83	2.01	0.831	1.47
HCI-025, days in culture: 218	2.02	1.91	1.95	1.42	1.45	2.15	1.22	2.19
HCI-027, days in culture: 176	2.35	1.45	1.79	0.289	0.192	0.176	0.165	1.96
HCI-027, days in culture: 194	1.64	1.41	1.38	0.35	0.281	0.486	0.484	1.55
HCI-027, days in culture: 201	2.24	1.62	1.57	0.358	0.288	0.407	0.247	1.99

HCI-011.E2
Conditions	CTG-3D luminescence at 96 h
12.5 pM	1.55
0.00025 µM	1.61
0.005 µM	1.49
0.1 µM	1.97
1 µM	1.71
10 µM	2.01
100 µM	1.76
625 fM	1.94
